Measured values taken from ChEMBL document CHEMBL1201862, “PubChem BioAssay data set” (2004).
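Compound exposure: 48 hours, 5 concentrations, 96-well plates. GI50 = concentration required for 50% inhibition of growth.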 The source made the active and inactive calls. Rule as the data show it: active = GI50 up to about 1.1 µM and inactive = higher.

What was measured:
Test in all cases: growth of human tumour cells (NCI), 48 h
DLD-1 = tested on: DLD-1
DMS-273 = tested on: DMS-273
HOP-18 = tested on: HOP-18
KM-20L2 = tested on: KM-20L2
M19-MEL = tested on: M19-MEL
XF498 = tested on: XF498
RXF 631 = tested on: RXF 631
BT-549 = tested on: BT-549
MDA-N = tested on: MDA-N

Compound	GI50 (DLD-1)	GI50 (DMS-273)	GI50 (HOP-18)	GI50 (KM-20L2)	GI50 (M19-MEL)	GI50 (XF498)	GI50 (RXF 631)	GI50 (BT-549)	GI50 (MDA-N)
COc1ccc2c(c1)[n+]([O-])c(-c1ccc(OC)c(OC)c1)c(N)[n+]2[O-]	78.9 µM (inactive)	61.5 µM (inactive)	43.7 µM (inactive)	42 µM (inactive)	54.6 µM (inactive)	> 100 µM (inactive)	–	–	–
COc1ccccc1NC(=O)CC(=O)NNCC(=O)Nc1nc(-c2ccccc2)cs1	> 100 µM (inactive)	> 100 µM (inactive)	> 100 µM (inactive)	> 100 µM (inactive)	> 100 µM (inactive)	–	–	–	–
C[Si](C)(C)/C=C\CCCN1C(=O)CCC1=O	–	–	–	> 100 µM (inactive)	> 100 µM (inactive)	> 100 µM (inactive)	> 100 µM (inactive)	–	–
CCCCNc1nc(C#N)c(N)s1	> 100 µM (inactive)	> 100 µM (inactive)	–	> 100 µM (inactive)	–	> 100 µM (inactive)	> 100 µM (inactive)	–	–
NC(=O)C12C3C4C1C1C2C3C41C(N)=O (stereo not given)	> 100 µM (inactive)	> 100 µM (inactive)	> 100 µM (inactive)	> 100 µM (inactive)	> 100 µM (inactive)	–	–	–	–
COC(=O)C(=O)C(C(=O)C(=O)Nc1ccc(OC)cc1[N+](=O)[O-])c1nc2ccc([N+](=O)[O-])cc2nc1O (stereo not given)	> 100 µM (inactive)	–	> 100 µM (inactive)	> 100 µM (inactive)	> 100 µM (inactive)	> 100 µM (inactive)	–	–	–
CN(CCO)c1nc2c(c(=O)[nH]1)CNCC2	> 100 µM (inactive)	> 100 µM (inactive)	> 100 µM (inactive)	> 100 µM (inactive)	80.2 µM (inactive)	> 100 µM (inactive)	–	–	–
Cc1nc2ccccc2c(=O)n1/N=C(\N=N\c1ccc(Cl)cc1)c1cccc(-c2ccco2)c1	27.9 µM (inactive)	27.9 µM (inactive)	21.1 µM (inactive)	27.3 µM (inactive)	34.1 µM (inactive)	–	–	–	–
COC(=O)C(CC(=O)Nc1ccc(Cl)c(Cl)c1)C(=O)C(=O)Nc1ccc(Cl)c(Cl)c1 (stereo not given)	–	> 100 µM (inactive)	50.7 µM (inactive)	> 100 µM (inactive)	> 100 µM (inactive)	–	> 100 µM (inactive)	–	–
CCN(CC)/[N+]([O-])=N/O	–	> 100 µM (inactive)	–	> 100 µM (inactive)	> 100 µM (inactive)	18.9 µM (inactive)	> 100 µM (inactive)	–	–
C[N+](C)(C)CCOC(=O)/C=C/c1c[nH]cn1	> 500 µM (inactive)	> 500 µM (inactive)	> 500 µM (inactive)	> 500 µM (inactive)	> 500 µM (inactive)	> 500 µM (inactive)	–	–	–
c1ccc(NCn2cnc3ccccc32)cc1	29.2 µM (inactive)	> 100 µM (inactive)	> 100 µM (inactive)	6.04 µM (inactive)	> 100 µM (inactive)	> 100 µM (inactive)	> 100 µM (inactive)	–	–
O[C@H]1[C@H]2[C@H](O)CCCN2C[C@H]1O [TRIDOLGOSIR]	> 100 µM (inactive)	> 100 µM (inactive)	> 100 µM (inactive)	> 100 µM (inactive)	> 100 µM (inactive)	> 100 µM (inactive)	–	–	–
COC(=O)C1=C(C(=O)OC)C23C=CC=CC24C(C(=O)OC)=C(C(=O)OC)C4C1C3 (stereo not given)	> 100 µM (inactive)	72.9 µM (inactive)	–	> 100 µM (inactive)	> 100 µM (inactive)	> 100 µM (inactive)	–	–	–
CCOC(=O)/C(C#N)=C\Sc1ccccc1	18.1 µM (inactive)	16.3 µM (inactive)	> 100 µM (inactive)	22.8 µM (inactive)	22 µM (inactive)	28.1 µM (inactive)	15.7 µM (inactive)	–	–
NC1C[C@H](n2cc(/C=C/Br)c(=O)[nH]c2=O)C[C@@H]1CO (stereo not given in full)	> 100 µM (inactive)	> 100 µM (inactive)	> 100 µM (inactive)	> 100 µM (inactive)	> 100 µM (inactive)	–	–	–	–
O=C(O)c1cc2c(s1)C(=O)c1sccc1C2=O	14.4 µM (inactive)	10.9 µM (inactive)	5.52 µM (inactive)	19.2 µM (inactive)	1.24 µM (inactive)	20.9 µM (inactive)	–	1.91 µM (inactive)	0.769 µM (active)
COC(=O)C(=O)C(C(=O)C(=O)Nc1ccc(F)cc1)c1nc2ccc([N+](=O)[O-])cc2nc1O (stereo not given)	> 100 µM (inactive)	–	> 100 µM (inactive)	> 100 µM (inactive)	> 100 µM (inactive)	> 100 µM (inactive)	> 100 µM (inactive)	–	–
CC(=O)NS(=O)(=O)c1ccc(NC(=O)COC(=O)c2cccc3c(=O)c4ccccc4[nH]c23)cc1	–	> 100 µM (inactive)	> 100 µM (inactive)	–	> 100 µM (inactive)	> 100 µM (inactive)	–	–	–
CCOC(=O)C(=Cc1cc(OC)ccc1OC)C(=O)OCC	8.41 µM (inactive)	3.75 µM (inactive)	11.4 µM (inactive)	2.21 µM (inactive)	4.07 µM (inactive)	11.2 µM (inactive)	5.81 µM (inactive)	–	–
O=C(CC1(O)C(=O)Nc2ccc([N+](=O)[O-])cc21)c1ccncc1 (stereo not given)	37.4 µM (inactive)	–	27.8 µM (inactive)	76.4 µM (inactive)	20.4 µM (inactive)	15.3 µM (inactive)	20.7 µM (inactive)	–	–
Fc1ccc(C2SCc3nc4ccccc4n32)cc1F (stereo not given)	34.2 µM (inactive)	26.5 µM (inactive)	60.4 µM (inactive)	55.5 µM (inactive)	28.6 µM (inactive)	25.4 µM (inactive)	28.8 µM (inactive)	–	–
O=C(CSSCC(=O)OCCS(=O)(=O)Nc1ccc(Br)cc1)OCCS(=O)(=O)Nc1ccc(Br)cc1	15.7 µM (inactive)	9.51 µM (inactive)	> 100 µM (inactive)	22.9 µM (inactive)	15.1 µM (inactive)	–	–	–	–
Cc1cc([N+](=O)[O-])ccc1NC(=O)C(=O)C(C(=O)c1ccccc1-c1ccccc1)C1OC(=O)c2ccccc21 (stereo not given)	–	4.99 µM (inactive)	14.2 µM (inactive)	3.48 µM (inactive)	12.9 µM (inactive)	5.93 µM (inactive)	4.75 µM (inactive)	–	–
Cc1cc2c(c(C(=O)O)c1C)-c1cccc(F)c1C2=O	> 100 µM (inactive)	> 100 µM (inactive)	–	> 100 µM (inactive)	> 100 µM (inactive)	> 100 µM (inactive)	> 100 µM (inactive)	–	–
COc1cc(/C=N/N=C(\N)NO)cc(Cl)c1O	71.1 µM (inactive)	–	19.2 µM (inactive)	–	27.8 µM (inactive)	–	–	–	–
